From PMC9856672, “SGC-CAMKK2-1: A Chemical Probe for CAMKK2” (Cells, 2023)

What was measured:
[1] = target: PIM2 (Homo sapiens, UniProt Q9P1W9); test: PIM2 inhibition at Reaction Biology Corporation; format: biochemical; design: purchased Reaction Biology Corporation; conditions: n = 1, read-out: PIM2 Enzyme IC50
[2] = target: T1, EIF2AK1 (Homo sapiens, UniProt Q9BQI3); test: KINOMEscan at 1 μM, EIF2AK1; format: binding; conditions: 1000 nM, read-out: Percent Control
T1 construct: purchased Eurofins DiscoverX KINOMEscan
From the text: (§1) Supplement cells-12-00287-s001.zip/File S2. KinomeScan data for the CAMKK2 probe and negative control.xlsx, sheet "SGC-CAMKK2-1N" | column: Percent Control

[3] = target: T2, STK16 (Homo sapiens, UniProt O75716); test: KINOMEscan at 1 μM, STK16; format: binding; conditions: 1000 nM, read-out: Percent Control
T2 construct: purchased Eurofins DiscoverX KINOMEscan
From the text: as §1

[4] = target: T3, MAP3K3 (Homo sapiens, UniProt Q99759); test: KINOMEscan at 1 μM, MAP3K3; format: binding; conditions: 1000 nM, read-out: Percent Control
T3 construct: purchased Eurofins DiscoverX KINOMEscan
From the text: as §1

[5] = target: T4, GRK2 (Homo sapiens, UniProt P25098); test: KINOMEscan at 1 μM, GRK2; format: binding; conditions: 1000 nM, read-out: Percent Control
T4 construct: purchased Eurofins DiscoverX KINOMEscan
From the text: as §1

[6] = target: T5, IKK-alpha (Homo sapiens, UniProt O15111); test: KINOMEscan at 1 μM, IKK-alpha; format: binding; conditions: 1000 nM, read-out: Percent Control
T5 construct: purchased Eurofins DiscoverX KINOMEscan
From the text: as §1

[7] = target: T6, RIPK5 (Homo sapiens, UniProt Q6XUX3); test: KINOMEscan at 1 μM, RIPK5; format: binding; conditions: 1000 nM, read-out: Percent Control
T6 construct: purchased Eurofins DiscoverX KINOMEscan
T6 sequence (Q6XUX3 whole entry): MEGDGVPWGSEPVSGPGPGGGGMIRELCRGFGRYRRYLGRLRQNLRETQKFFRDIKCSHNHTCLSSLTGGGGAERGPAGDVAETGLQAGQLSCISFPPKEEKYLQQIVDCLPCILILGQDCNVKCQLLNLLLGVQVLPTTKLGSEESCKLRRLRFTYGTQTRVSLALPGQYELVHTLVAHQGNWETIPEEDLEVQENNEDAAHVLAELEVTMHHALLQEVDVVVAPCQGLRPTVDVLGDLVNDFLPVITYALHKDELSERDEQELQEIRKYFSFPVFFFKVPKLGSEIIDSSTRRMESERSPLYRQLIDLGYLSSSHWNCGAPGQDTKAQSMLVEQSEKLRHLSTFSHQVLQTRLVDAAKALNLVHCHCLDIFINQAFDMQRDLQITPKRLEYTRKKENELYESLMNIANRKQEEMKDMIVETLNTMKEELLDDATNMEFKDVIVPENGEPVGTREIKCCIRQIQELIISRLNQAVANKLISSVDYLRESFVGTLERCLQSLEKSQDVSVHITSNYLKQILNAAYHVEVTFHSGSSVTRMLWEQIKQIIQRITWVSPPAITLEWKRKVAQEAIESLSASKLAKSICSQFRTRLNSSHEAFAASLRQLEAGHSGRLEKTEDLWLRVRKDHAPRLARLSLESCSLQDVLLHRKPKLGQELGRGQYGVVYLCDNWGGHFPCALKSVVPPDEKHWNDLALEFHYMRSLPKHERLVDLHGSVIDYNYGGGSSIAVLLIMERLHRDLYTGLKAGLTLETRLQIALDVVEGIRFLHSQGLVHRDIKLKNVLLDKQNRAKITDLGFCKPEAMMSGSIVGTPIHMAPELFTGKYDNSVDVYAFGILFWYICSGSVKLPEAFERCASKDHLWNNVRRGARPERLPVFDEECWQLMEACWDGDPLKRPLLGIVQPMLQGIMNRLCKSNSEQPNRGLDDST
From the text: as §1

[8] = target: T7, CLK1 (Homo sapiens, UniProt P49759); test: KINOMEscan at 1 μM, CLK1; format: binding; conditions: 1000 nM, read-out: Percent Control
T7 construct: purchased Eurofins DiscoverX KINOMEscan
From the text: as §1

[9] = target: T8, MAP3K2 (Homo sapiens, UniProt Q9Y2U5); test: KINOMEscan at 1 μM, MAP3K2; format: binding; conditions: 1000 nM, read-out: Percent Control
T8 construct: purchased Eurofins DiscoverX KINOMEscan
From the text: as §1

[10] = target: T9, EGFR(T790M) (Homo sapiens, UniProt P00533, T790M); test: KINOMEscan at 1 μM, EGFR(T790M); format: binding; conditions: 1000 nM, read-out: Percent Control
T9 construct: purchased Eurofins DiscoverX KINOMEscan
From the text: as §1

[11] = target: T10, CAMK1G (Homo sapiens, UniProt Q96NX5); test: KINOMEscan at 1 μM, CAMK1G; format: binding; conditions: 1000 nM, read-out: Percent Control
T10 construct: purchased Eurofins DiscoverX KINOMEscan
T10 sequence (Q96NX5 whole entry): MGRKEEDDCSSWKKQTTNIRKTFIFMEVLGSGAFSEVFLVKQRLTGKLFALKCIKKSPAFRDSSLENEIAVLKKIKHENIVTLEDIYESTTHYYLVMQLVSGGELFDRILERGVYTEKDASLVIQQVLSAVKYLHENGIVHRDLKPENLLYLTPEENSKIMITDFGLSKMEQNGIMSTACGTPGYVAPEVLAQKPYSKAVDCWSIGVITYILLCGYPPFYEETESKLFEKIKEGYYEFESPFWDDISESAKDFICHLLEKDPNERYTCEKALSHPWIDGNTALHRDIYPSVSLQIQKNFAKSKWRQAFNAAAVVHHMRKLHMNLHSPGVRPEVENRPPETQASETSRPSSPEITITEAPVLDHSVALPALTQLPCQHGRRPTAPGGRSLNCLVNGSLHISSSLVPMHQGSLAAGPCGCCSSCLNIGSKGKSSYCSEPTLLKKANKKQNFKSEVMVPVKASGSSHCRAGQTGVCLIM
From the text: as §1

[12] = target: T11, MEK2 (Homo sapiens, UniProt P36507); test: KINOMEscan at 1 μM, MEK2; format: binding; conditions: 1000 nM, read-out: Percent Control
T11 construct: purchased Eurofins DiscoverX KINOMEscan
From the text: as §1

[13] = target: T12, RSK2(Kin.Dom.1-N-terminal) (Homo sapiens, UniProt P51812); test: KINOMEscan at 1 μM, RSK2(Kin.Dom.1-N-terminal); format: binding; conditions: 1000 nM, read-out: Percent Control
T12 construct: RSK2(Kin.Dom.1-N-terminal); purchased Eurofins DiscoverX KINOMEscan
T12 sequence (P51812 1-397 limits assumed): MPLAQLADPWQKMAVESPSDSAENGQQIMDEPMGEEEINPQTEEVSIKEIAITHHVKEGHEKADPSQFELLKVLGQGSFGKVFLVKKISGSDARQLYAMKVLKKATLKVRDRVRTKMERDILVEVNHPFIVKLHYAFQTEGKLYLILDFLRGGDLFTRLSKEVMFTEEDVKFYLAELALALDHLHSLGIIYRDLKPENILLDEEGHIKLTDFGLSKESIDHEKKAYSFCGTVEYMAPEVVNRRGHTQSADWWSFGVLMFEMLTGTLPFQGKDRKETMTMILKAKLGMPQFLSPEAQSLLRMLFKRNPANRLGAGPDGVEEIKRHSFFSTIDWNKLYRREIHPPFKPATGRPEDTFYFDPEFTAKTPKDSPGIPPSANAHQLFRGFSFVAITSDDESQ
From the text: as §1

[14] = target: T13, ABL1(F317I)-phosphorylated (Homo sapiens, UniProt P00519, F317I); test: KINOMEscan at 1 μM, ABL1(F317I)-phosphorylated; format: binding; conditions: 1000 nM, read-out: Percent Control
T13 construct: purchased Eurofins DiscoverX KINOMEscan
From the text: as §1

[15] = target: T14, ALK(L1196M) (Homo sapiens, UniProt Q9UM73, L1196M); test: KINOMEscan at 1 μM, ALK(L1196M); format: binding; conditions: 1000 nM, read-out: Percent Control
T14 construct: purchased Eurofins DiscoverX KINOMEscan
From the text: as §1

[16] = target: T15, RSK1(Kin.Dom.2-C-terminal) (Homo sapiens, UniProt Q15418); test: KINOMEscan at 1 μM, RSK1(Kin.Dom.2-C-terminal); format: binding; conditions: 1000 nM, read-out: Percent Control
T15 construct: RSK1(Kin.Dom.2-C-terminal); purchased Eurofins DiscoverX KINOMEscan
From the text: as §1

[17] = target: T16, PYK2 (Homo sapiens, UniProt Q14289); test: KINOMEscan at 1 μM, PYK2; format: binding; conditions: 1000 nM, read-out: Percent Control
T16 construct: purchased Eurofins DiscoverX KINOMEscan
T16 sequence (Q14289 whole entry): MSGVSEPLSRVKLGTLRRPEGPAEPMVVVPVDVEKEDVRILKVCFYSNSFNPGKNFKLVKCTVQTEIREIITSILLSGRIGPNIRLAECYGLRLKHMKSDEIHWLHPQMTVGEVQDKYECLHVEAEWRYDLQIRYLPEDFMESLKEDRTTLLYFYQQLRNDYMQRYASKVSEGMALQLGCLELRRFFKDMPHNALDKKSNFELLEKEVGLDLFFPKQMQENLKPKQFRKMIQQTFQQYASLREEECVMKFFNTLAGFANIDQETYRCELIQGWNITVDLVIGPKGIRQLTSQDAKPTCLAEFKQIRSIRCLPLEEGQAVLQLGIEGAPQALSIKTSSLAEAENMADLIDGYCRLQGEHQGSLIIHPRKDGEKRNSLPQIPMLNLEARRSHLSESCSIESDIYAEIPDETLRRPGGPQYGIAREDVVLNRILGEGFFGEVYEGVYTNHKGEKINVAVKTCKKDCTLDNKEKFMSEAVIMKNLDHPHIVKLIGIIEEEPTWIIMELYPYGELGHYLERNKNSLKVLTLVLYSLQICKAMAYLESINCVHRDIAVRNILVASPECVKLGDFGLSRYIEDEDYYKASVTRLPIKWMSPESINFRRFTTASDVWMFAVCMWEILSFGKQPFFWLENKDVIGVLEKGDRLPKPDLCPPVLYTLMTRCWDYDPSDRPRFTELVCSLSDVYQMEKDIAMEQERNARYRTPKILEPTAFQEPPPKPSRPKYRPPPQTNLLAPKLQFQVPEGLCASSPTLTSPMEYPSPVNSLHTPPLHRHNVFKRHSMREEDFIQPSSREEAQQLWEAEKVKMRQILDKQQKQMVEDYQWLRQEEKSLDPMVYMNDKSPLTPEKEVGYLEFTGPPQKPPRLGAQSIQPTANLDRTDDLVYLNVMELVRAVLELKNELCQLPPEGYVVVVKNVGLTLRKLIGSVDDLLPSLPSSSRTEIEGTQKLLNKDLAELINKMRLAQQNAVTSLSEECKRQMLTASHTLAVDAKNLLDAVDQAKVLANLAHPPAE
From the text: as §1

[18] = target: T17, FER (Homo sapiens, UniProt P16591); test: KINOMEscan binding assay at 1 μM, FER; conditions: Compound Concentration 1000 nM; read-out: Percent Control
T17 construct: purchased Eurofins DiscoverX KINOMEscan
From the text: as §1

[19] = target: T18, GSK3A (Homo sapiens, UniProt P49840); test: KINOMEscan binding assay at 1 μM, GSK3A; conditions: Compound Concentration 1000 nM; read-out: Percent Control
T18 construct: purchased Eurofins DiscoverX KINOMEscan
From the text: as §1

[20] = target: T19, IGF1R (Homo sapiens, UniProt P08069); test: KINOMEscan binding assay at 1 μM, IGF1R; conditions: Compound Concentration 1000 nM; read-out: Percent Control
T19 construct: purchased Eurofins DiscoverX KINOMEscan
From the text: as §1

[21] = target: T20, MST1 (Homo sapiens, UniProt Q13043); test: KINOMEscan binding assay at 1 μM, MST1; conditions: Compound Concentration 1000 nM; read-out: Percent Control
T20 construct: purchased Eurofins DiscoverX KINOMEscan
From the text: as §1

[22] = target: T10, CAMK1G; test: KINOMEscan 1 μM, CAMK1G; format: binding; conditions: 1000 nM; Entrez CAMK1G; read-out: Percent Control
From the text: (§2) Supplement cells-12-00287-s001.zip/File S2. KinomeScan data for the CAMKK2 probe and negative control.xlsx, sheet "SGC-CAMKK2-1" | column: Percent Control

[23] = target: T21, PAK4 (Homo sapiens, UniProt O96013); test: KINOMEscan 1 μM, PAK4; format: binding; conditions: 1000 nM; Entrez PAK4; read-out: Percent Control
T21 construct: purchased Eurofins DiscoverX KINOMEscan
T21 sequence (O96013 whole entry): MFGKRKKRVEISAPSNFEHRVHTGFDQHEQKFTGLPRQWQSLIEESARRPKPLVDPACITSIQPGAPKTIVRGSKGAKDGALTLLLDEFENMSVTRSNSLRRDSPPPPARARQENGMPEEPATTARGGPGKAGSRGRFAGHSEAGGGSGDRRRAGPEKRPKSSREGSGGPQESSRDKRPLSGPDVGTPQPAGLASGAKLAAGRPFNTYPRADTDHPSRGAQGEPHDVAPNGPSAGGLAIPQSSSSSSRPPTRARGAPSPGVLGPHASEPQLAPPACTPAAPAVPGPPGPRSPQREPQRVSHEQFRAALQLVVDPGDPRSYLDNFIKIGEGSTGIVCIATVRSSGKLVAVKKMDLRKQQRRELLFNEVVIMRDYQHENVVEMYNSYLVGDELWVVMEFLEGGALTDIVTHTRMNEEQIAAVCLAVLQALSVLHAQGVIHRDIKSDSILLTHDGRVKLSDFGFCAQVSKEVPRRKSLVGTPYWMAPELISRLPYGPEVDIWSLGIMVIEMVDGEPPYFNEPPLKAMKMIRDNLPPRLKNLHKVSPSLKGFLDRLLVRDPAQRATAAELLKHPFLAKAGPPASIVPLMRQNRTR
From the text: as §2

[24] = target: T22, SGK (Homo sapiens, UniProt O00141); test: KINOMEscan 1 μM, SGK; format: binding; conditions: 1000 nM; Entrez SGK1; read-out: Percent Control
T22 construct: purchased Eurofins DiscoverX KINOMEscan
T22 sequence (O00141 whole entry): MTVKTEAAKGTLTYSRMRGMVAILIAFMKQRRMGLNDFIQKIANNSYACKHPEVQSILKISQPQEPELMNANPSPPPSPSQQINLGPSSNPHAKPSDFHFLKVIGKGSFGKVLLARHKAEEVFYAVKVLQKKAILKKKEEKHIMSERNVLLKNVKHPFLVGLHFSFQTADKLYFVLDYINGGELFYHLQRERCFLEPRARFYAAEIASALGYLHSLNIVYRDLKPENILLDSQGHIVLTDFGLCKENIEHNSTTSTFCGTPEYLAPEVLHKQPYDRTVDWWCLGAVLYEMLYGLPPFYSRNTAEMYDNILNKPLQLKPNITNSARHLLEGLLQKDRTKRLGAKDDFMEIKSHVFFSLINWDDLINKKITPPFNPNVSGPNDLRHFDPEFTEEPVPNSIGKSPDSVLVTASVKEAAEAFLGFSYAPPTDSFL
From the text: as §2

[25] = target: T23, CDK5 (Homo sapiens, UniProt Q00535); test: KINOMEscan 1 μM, CDK5; format: binding; conditions: 1000 nM; Entrez CDK5; read-out: Percent Control
T23 construct: purchased Eurofins DiscoverX KINOMEscan
From the text: as §2

[26] = target: T24, IKK-beta (Homo sapiens, UniProt O14920); test: KINOMEscan 1 μM, IKK-beta; format: binding; conditions: 1000 nM; Entrez IKBKB; read-out: Percent Control
T24 construct: purchased Eurofins DiscoverX KINOMEscan
From the text: as §2

[27] = target: T25, KIT(V559D,T670I) (Homo sapiens, UniProt P10721, T670I/V559D); test: KINOMEscan 1 μM, KIT(V559D,T670I); format: binding; conditions: 1000 nM; Entrez KIT; read-out: Percent Control
T25 construct: purchased Eurofins DiscoverX KINOMEscan
T25 sequence (P10721 26-976 V559D/T670I): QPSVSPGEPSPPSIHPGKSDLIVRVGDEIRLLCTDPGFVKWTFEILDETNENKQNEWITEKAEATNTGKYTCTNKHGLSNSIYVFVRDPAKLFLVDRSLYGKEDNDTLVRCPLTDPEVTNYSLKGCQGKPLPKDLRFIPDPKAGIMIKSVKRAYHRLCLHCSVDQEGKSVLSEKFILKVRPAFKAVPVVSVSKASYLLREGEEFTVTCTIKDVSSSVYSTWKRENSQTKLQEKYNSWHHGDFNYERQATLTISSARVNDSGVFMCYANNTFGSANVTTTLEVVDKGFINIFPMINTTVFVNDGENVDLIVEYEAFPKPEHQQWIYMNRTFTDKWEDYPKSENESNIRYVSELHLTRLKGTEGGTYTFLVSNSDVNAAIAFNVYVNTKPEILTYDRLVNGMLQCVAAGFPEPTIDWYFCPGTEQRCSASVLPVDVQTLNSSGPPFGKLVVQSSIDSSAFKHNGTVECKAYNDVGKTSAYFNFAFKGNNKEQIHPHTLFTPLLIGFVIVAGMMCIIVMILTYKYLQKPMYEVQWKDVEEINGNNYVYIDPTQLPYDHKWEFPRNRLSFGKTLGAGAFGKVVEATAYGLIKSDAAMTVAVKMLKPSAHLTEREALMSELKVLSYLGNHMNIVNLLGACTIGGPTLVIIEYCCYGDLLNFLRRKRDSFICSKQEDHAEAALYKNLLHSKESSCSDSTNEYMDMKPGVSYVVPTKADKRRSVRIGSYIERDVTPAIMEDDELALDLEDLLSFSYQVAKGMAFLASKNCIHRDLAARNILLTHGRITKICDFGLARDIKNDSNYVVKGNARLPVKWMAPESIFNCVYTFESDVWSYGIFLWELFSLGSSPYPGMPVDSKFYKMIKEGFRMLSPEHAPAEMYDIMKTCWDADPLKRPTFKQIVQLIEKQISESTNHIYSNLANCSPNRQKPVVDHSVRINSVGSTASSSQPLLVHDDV
From the text: as §2

[28] = target: T26, LTK (Homo sapiens, UniProt P29376); test: KINOMEscan 1 μM, LTK; format: binding; conditions: 1000 nM; Entrez LTK; read-out: Percent Control
T26 construct: purchased Eurofins DiscoverX KINOMEscan
From the text: as §2

[29] = target: T27, PIK3CA(Q546K) (Homo sapiens, UniProt P42336, Q546K); test: DiscoverX KINOMEscan binding assay at 1 μM, PIK3CA(Q546K); conditions: Compound Concentration 1000 nM, read-out: Percent Control
T27 construct: purchased Eurofins DiscoverX KINOMEscan
From the text: as §2

[30] = target: T28, PIP5K1A (Homo sapiens, UniProt Q99755); test: DiscoverX KINOMEscan binding assay at 1 μM, PIP5K1A; conditions: Compound Concentration 1000 nM, read-out: Percent Control
T28 construct: purchased Eurofins DiscoverX KINOMEscan
From the text: as §2

[31] = target: T29, RIPK4 (Homo sapiens, UniProt P57078); test: DiscoverX KINOMEscan binding assay at 1 μM, RIPK4; conditions: Compound Concentration 1000 nM, read-out: Percent Control
T29 construct: purchased Eurofins DiscoverX KINOMEscan
From the text: as §2

[32] = target: T30, RSK4(Kin.Dom.1-N-terminal) (Homo sapiens, UniProt Q9UK32); test: DiscoverX KINOMEscan binding assay at 1 μM, RSK4(Kin.Dom.1-N-terminal); conditions: RSK4(Kin.Dom.1-N-terminal) (RPS6KA6); Compound Concentration 1000 nM; read-out: Percent Control
T30 construct: RSK4(Kin.Dom.1-N-terminal); purchased Eurofins DiscoverX KINOMEscan
From the text: as §2

[33] = target: T31, TTK (Homo sapiens, UniProt P33981); test: DiscoverX KINOMEscan binding assay at 1 μM, TTK; conditions: Compound Concentration 1000 nM, read-out: Percent Control
T31 construct: purchased Eurofins DiscoverX KINOMEscan
From the text: as §2

O=C(O)c1ccc(-c2coc3ncc(-c4ccccc4)cc23)cc1Cl [Compound 7]
IC50 [1]: 1900 nM

O=C(O)c1ccc(-c2coc3ncc(-c4ccccc4)cc23)cc1Cl [SGC-CAMKK2-1N (UNC-YL-83)]
remaining binding at 1 µM [2]: 42%
remaining binding at 1 µM [3]: 42%
remaining binding at 1 µM [4]: 47%
remaining binding at 1 µM [5]: 55%
remaining binding at 1 µM [6]: 75%
remaining binding at 1 µM [7]: 78%
remaining binding at 1 µM [8]: 79%
remaining binding at 1 µM [9]: 83%
remaining binding at 1 µM [10]: 85%
remaining binding at 1 µM [11]: 86%
remaining binding at 1 µM [12]: 88%
remaining binding at 1 µM [13]: 88%
remaining binding at 1 µM [14]: 90%
remaining binding at 1 µM [15]: 92%
remaining binding at 1 µM [16]: 94%
remaining binding at 1 µM [17]: 96%
remaining binding at 1 µM [18]: 100%
remaining binding at 1 µM [19]: 100%
remaining binding at 1 µM [20]: 100%
remaining binding at 1 µM [21]: 100%

Cc1cccc(-c2cnc3occ(-c4ccc(C(=O)O)c(C5CCCC5)c4)c3c2)c1 [SGC-CAMKK2-1 (YL-36)]
remaining binding at 1 µM [22]: 54%
remaining binding at 1 µM [23]: 69%
remaining binding at 1 µM [24]: 86%
remaining binding at 1 µM [25]: 100%
remaining binding at 1 µM [26]: 100%
remaining binding at 1 µM [27]: 100%
remaining binding at 1 µM [28]: 100%
remaining binding at 1 µM [29]: 100%
remaining binding at 1 µM [30]: 100%
remaining binding at 1 µM [31]: 100%
remaining binding at 1 µM [32]: 100%
remaining binding at 1 µM [33]: 100%
